A word on the IC50: it is the midpoint of a concentration-inhibition curve.

Molecules are shown by their SMILES.

Experimental findings from patent US5356921A, “Imidazolylphenol compounds, pharmaceutical compositions containing them, and processes for preparing such compounds and compositions” (Gruenenthal GmbH, priority 1992, dated 1994) are described below.

One experiment deals with T1, 5-lipoxygenase (Rattus norvegicus, UniProt P12527).
T1 construct: endogenous in cells; host or cells: RBL-1 cells (rat basophilic leukemia), intact
T1 sequence (P12527 1-673): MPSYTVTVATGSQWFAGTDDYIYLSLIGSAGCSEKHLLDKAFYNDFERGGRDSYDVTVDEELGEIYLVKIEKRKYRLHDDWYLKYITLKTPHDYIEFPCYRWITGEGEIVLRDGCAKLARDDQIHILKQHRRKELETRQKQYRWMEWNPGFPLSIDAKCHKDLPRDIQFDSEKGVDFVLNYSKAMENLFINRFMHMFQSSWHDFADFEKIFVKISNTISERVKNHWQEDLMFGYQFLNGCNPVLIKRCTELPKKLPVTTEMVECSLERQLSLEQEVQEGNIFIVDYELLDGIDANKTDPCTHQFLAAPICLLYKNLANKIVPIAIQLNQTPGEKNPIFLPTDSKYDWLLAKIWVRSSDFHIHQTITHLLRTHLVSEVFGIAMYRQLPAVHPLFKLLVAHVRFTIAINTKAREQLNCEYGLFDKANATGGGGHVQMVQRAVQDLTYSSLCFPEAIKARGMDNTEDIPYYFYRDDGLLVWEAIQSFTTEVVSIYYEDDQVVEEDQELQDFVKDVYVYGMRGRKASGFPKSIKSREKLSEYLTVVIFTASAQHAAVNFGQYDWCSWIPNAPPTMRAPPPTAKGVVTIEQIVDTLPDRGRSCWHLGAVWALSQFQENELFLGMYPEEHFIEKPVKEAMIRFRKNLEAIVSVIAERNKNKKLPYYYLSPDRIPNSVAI
The experiment is described as follows: Inhibition of 5-lipoxygenase in RBL-1-cells. It counts as cell-based. To be noted: 20 μM [14C]-arachidonic acid, 20 μM A 23 187. The procedure:
To determine the inhibition of 5-lipoxygenase rat basophilic leukemia cells (RBL-1-cells) were cultured in vitro, harvested by centrifugation, washed with 50 mM potassium phosphate buffer of pH 7.4, and then suspended in this buffer at 1×10^7 cells/mi. To 1 ml each of this suspension there was added indomethacin (10 μM) and calcium chloride (2 mM), and then the mixture was incubated in the absence or presence of a compound according to the invention in a concentration range of from 0.1 μM to 100 μM for 3 minutes and thereafter with 20 μM of [^14 C]-arachidonic acid and 20 μM of the calcium ionophore A 23 187 for 10 minutes. The reaction was stopped by adding 20 μl of glacial acetic acid, and then the mixture was extracted with ethyl acetate to isolate the metabolites of arachidonic acid formed by the enzymatic action of 5-lipoxygenase. These were separated by thin layer chromatography using a solvent mixture known to be suitable for lipoxygenase products [c.f. Jakschik et al., Biochem. Biophys. Res. Commun. 102, 624 (1981)].
The distribution of the radioactivity among the various metabolites of arachidonic acid was measured using a TLC Linear Analyzer. By correlating the percentages of the amount of the products formed under the action of 5lipoxygenase (5-HETE, isomers of LTB4) in the absence as well as in the presence of different concentrations of compounds according to the invention, the IC50 -values, i.e. the concentrations which cause 50% inhibition of 5-lipoxygenase were determined graphically from semilogarithmic diagrams.

For a further experiment, the system named is guinea pigs. The experiment is described as follows: Allergen-induced bronchoconstriction in guinea pigs (Konzett-Roessler). Type of experiment: in vivo, guinea pig. To be noted: Cavia porcellus, po, 1 h, 60 minutes before ovalbumin, read-out: ED40-Value, inhibition of the bronchoconstriction elicited by ovalbumin. The method, then:
The antiasthmatic effect of compounds according to the invention was tested in anesthetized and ventilated guinea pigs. To induce an asthmatic reaction, the animals were passively sensitized by a single intraperitoneal injection of anti-ovalbumin serum. After 48 hours an asthmatic reaction was elicited by intravenous challenge with 0.2 mg/kg of ovalbumin. The immediately resulting bronchoconstriction was measured as an increase in intratracheal pressure. Effects caused by histamine, serotonin and sympathic counterreaction were eliminated by intravenous pretreatment with 2.15 mg/kg of mepyramine, 46.4 μg/kg of propranolol, 4.64 mg/kg of atropine, and 1 mg/kg of methysergide, all administered 5 minutes before challenge. Compounds according to the invention were orally administered 60 minutes before the administration of ovalbumin. The following ED40-values for the inhibition of the bronchoconstriction elicited by ovalbumin, i.e. the effective doses causing a 40% average inhibition of the bronchoconstriction, were determined: […]

For experiment [1], the system named is Leukotriene-Synthesis Induced by FMLP/Merthiolate of Human Polymorphonuclear Leukocytes. The experiment is described as follows: Inhibition of leukotriene-synthesis induced by FMLP/merthiolate of human polymorphonuclear leukocytes (reversibility). The note with it: Leukocyte, human granulocytes, preincubated 5 minutes, centrifuged, resuspended, read-out: IC50-value of the reversible inhibitory action. Type of experiment: cell-based. The method, then: (§1) Human granulocytes were isolated by dextran-sedimentation and a Percoll gradient method and suspended in HBSS (Hanks buffered salt solution) at1×10^7 cells/mi. The cells were incubated in presence of a compound according to the invention or a solvent (ethanol and/or dimethyl sulfoxide) at 37° C. for 2 minutes, then with merthiolate (sodium ethylmercurithiosalicylate; 40 μM) for 2 minutes, and thereafter with FMLP (formyl-methionyl-leucylphenylalanine; 10^-7 M) for 15 minutes. After solid phase extraction the metabolites of arachidonic acid 5-HETE, LTB4, 6-trans-LTB4 -isomers, 20-OH-LTB4 and 20-COOH-LTB4 were identified by RP-HPLC [M. Haurand and L. Flohe in Biochem. Pharmacol. 38, 2129-37 (1989)].
To examine the reversibility of the inhibitory action the cells were incubated with a compound according the invention or a solvent (ethanol and/or dimethyl sulfoxide) at 37° C. for 5 minutes, centrifuged at 300×g for 5 minutes and resuspended in 2 ml HBSS. Then the cells were incubated with merthiolate (40 μM) at 37° C. for 2 minutes and thereafter with FMLP (10^-7 M) for 15 minutes. The IC50 -value of the reversible inhibitory action was 2μmolar when the compound prepared according to Example 1 was used.

The subject of a further experiment is 12-lipoxygenase. The experiment is described as follows: Inhibition of 12-HETE- and 5S,12S-DiHETE-synthesis induced by FMLP/merthiolate of human polymorphonuclear leukocytes and thrombocytes. Type of experiment: cell-based. To be noted: coincubated human granulocytes and thrombocytes. The procedure: as §1
Coincubations of human granulocytes and thrombocytes were carried out and investigated according to the inhibition of leukotriene-synthesis induced by FMLP/merthiolate. 12-HETE and 5S,12S-dihydroxy-HETE (5S,12S-DiHETE) were additionally included in the evaluation.

`CC(=O)N(O)Cc1ccc(Oc2ccc(-n3ccnc3)cc2)cc1` [Example 3, N-hydroxy-N-[4-[4-(1H-imidazol-1-yl)phenoxy]phenylmethyl]acetamide]: half-maximal inhibition on 5-lipoxygenase (IC50) required 5000 nM. In the experiment with guinea pigs, the ED40 came to 15.5 mg/kg.
For the compound `NC(=O)N(O)Cc1ccc(Oc2ccc(-n3ccnc3)cc2)cc1` [Example 1, N-hydroxy-N-[4-[4-(1H-imidazol-1-yl)phenoxy]phenylmethyl]urea], the 50% inhibitory concentration (IC50) (at 5-lipoxygenase; in experiment [1]) was 2000 nM throughout. The “inhibitory action on 12-lipoxygenase” value with 12-lipoxygenase is “did not exert an inhibitory action on 12-lipoxygenase”. The ED40 in the experiment with guinea pigs came to 9.3 mg/kg.
